Measurements reported in US7144862B2, “Orally administered peptides to ameliorate atherosclerosis” (The Regents of the University of California, priority 2000, dated 2006).

What was measured:
[1] = tested on: C57BL/6J mice fed an atherogenic diet; test: Aortic lesion formation, daily intraperitoneal injection for 16 weeks, atherogenic diet; type: in vivo, mouse; conditions: 5F 20 μg or MoAI 50 μg daily i.p.
Experimental: The livers were removed and weighed.
Histological evaluations were performed according to the method of Paigen et al. (Paigen et al. (1990) Arteriosclerosis 10: 316–323) with some modifications. Briefly, hearts were fixed for at least one week in the phosphate-buffered formaldehyde solution. After removing the lower ⅔ of the hearts, the remaining tissue was frozen in OCT medium (Tissue-Tek, Miles Inc., Elkhart, Ind.) and sectioned in a cryostat at −20° C. Alternate 20 μm sections were saved on slides, and observed for the beginning of the aortic root. Sections were then collected for an additional 600 μm, or until the aortic cross-section was rounded and the valve cusps were no longer evident. Slides were stained with Oil Red O, and counterstained with hematoxylin. Stained lesion cross-sectional areas were measured in consecutive slides 80 μm apart by image analysis (SigmaScan Pro, SPSS Scientific, Chicago, Ill.), and the average lesion area was determined for each aortic sinus over the 400 μm length (five slides) providing the greatest mean lesion area.

[2] = Right angle light scattering, dissolution of EPC MLVs; type: physicochemical; conditions: 105 μM EPC, equimolar peptide, 25° C., 30 min
Experimental: EPC MLVs were prepared by evaporating a solution of EPC (Avanti Polar, AL) under nitrogen and hydrating the lipid film with phosphate-buffered saline (pH 7.4). […] Turbidity clarification was monitored for 30 min.

[3] = Survival, toxicity, body and liver weights after 16 weeks of injection
Experimental: Mice were acquired at six weeks of age, and randomized into groups of 20, except that a negative control group of 10 received no treatments and was given standard rodent chow. At eight weeks of age, the treatment groups were placed on a modified Thomas-Hartroft atherogenic diet (#TD88051; Teklad, Madison, Wis.), and injections were begun. […] Animals were injected intraperitoneally daily for 16 weeks, including weekends and holidays.
At the end of the study (week 16), at the last bleeding, the heart and the liver were excised. […] The livers were removed and weighed.

[4] = tested on: human artery wall cell cocultures; test: LDL-induced monocyte chemotactic activity with the homologous series of peptides (Example 3); type: cell-based; conditions: peptide at 100 μg/ml, LDL 250 μg protein/ml, 8 h
Experimental: Microtitre plates were treated with 0.1% gelatin at 37° C. overnight. HASMC were added at a confluent density of 1×10^5 cells/cm^2. […] HAEC were subsequently added at 2×10^5 cells/cm^2 and were allowed to grow, forming a complete monolayer of confluent HAEC in two days. In all experiments, HAEC and autologous HASMC (from the same donor) were used at passage levels of four to six. […] The cocultures were treated with native LDL(250 μg protein/ml) or presence of HDL (350 μg protein/ml) or peptides for 8 h.

[5] = mouse, in vivo
Experimental: The 5F peptide, MoAI, and human apo A-I were labeled with ^125I by the method of Bilheimer et al. (1972) Biochim. Biophys. Acta 260: 212–221. Mice were placed on a modified Thomas-Hartroft atherogenic diet (#TD88051; Teklad, Madison, Wis.) for four weeks at which time daily intraperitoneal injections of peptide or protein dissolved in 200 μl phosphate-buffered saline (PBS) were begun. Animals injected with MoAI or human apo A-I received 50 μg per animal; those injected with 5F received 20 μg. Animals were not fasted for the kinetic studies and blood samples were taken under xylazine:ketamine anesthesia from the retro-orbital sinus at 15, 30, and 45 minutes, and 1, 1.5, 2, 3, 4, 6, 8, 12, and 24 hours following injection. Each animal provided three blood samples at different time points (all retro-orbital and alternating eyes), and at least three samples were collected (from different animals) at each time point. Samples were collected into heparinized capillary tubes, then placed in microcentrifuge tubes; the plasma was separated by centrifugation. Duplicate 10 μl aliquots of each sample were taken for radioactivity determination, using gamma counting (Cobra; Packard Instruments, Downers Grove, Ill.) for 10 minutes per sample. Total plasma volume was calculated as 4.2% body weight. Each sample was expressed as percent of injected CPM in total plasma. Free ^125I was determined by trichloroacetic acid (TCA) precipitation (1 ml of 10% TCA per 10 μl plasma sample). Fitting to the kinetic model was done using all data points, rather than averages at each time point (PKAnalyst, MicroMath Scientific Software, Salt Lake City, Utah).
Treatment groups were compared by two-tailed t-tests or one way analysis of variance (where the data were normally distributed), or by one way analysis of variance on ranks (SigmaStat; SPSS Science, Chicago, Ill.). Kinetics of peptide or protein turnover were analyzed by fitting to a first order one-compartment kinetic model assuming non-equal input and output rates (PKAnalyst; MicroMath Scientific Software, Salt Lake City, Utah).

[6] = Plasma cholesterol lipoprotein profiles (CLiP); type: in vivo, mouse; conditions: 16 weeks atherogenic diet, daily i.p.
Experimental: Plasma cholesterol lipoprotein profiles were measured using our recently-developed CLiP method (Garber et al. (2000) J. Lipid Res. 41:1020–1026). Briefly, 5 to 10 μl of plasma were analyzed using a single Superose 6 (Pharmacia, Piscataway N.J.) column. Immediately following the column, cholesterol reagent was introduced through a mixing tee, and the eluent:reagent mixture entered a post-column reaction coil. Cholesterol content of the eluent mixture was spectrophotometrically detected at 500 nm, and data points were collected into a computer. The resulting profiles were decomposed into component peaks and analyzed for relative area using PeakFit (SPSS Science, Chicago, Ill.); absolute cholesterol values for total cholesterol and each component peak were determined by comparison with a control sample of known values. In some cases fractions were collected to determine distribution of radioactivity. The CLiP method allowed analysis of individual mouse samples, avoiding the use of pooled samples.

[7] = DSC, bilayer to hexagonal phase transition of DiPoPE; type: physicochemical; conditions: heating scan rate 37°/h
Experimental: A known amount of phospholipid was dissolved in chloroform. For one set of samples, peptide was dissolved in methanol and added to a solution of DiPoPE in chloroforn/methanol (2:1, v:v). For both, pure lipid samples and the organic solutions of lipid and peptide, solvent was removed under a slow stream of nitrogen. Residual solvent was removed under vacuum. […] For DMPC, four consecutive scans with a 60 minute equilibration time between scans were taken. DSC thermograms were analyzed using the software provided by MicroCal Inc., Amherst, Mass., and Origin, version 5.0.
In the current study we prepared the peptide-lipid mixtures in two ways. One was by adding the peptide in organic solvent to the lipid in organic solvent followed by depositing the material as a film and subsequently hydrating with buffer. In the other method, the peptide and lipid were mixed after each was hydrated separately. If the mixture comes to equilibrium prior to the DSC analysis, it should not matter how the peptide and lipid are originally mixed. However, membrane systems can equilibrate slowly, in which case there may be more peptide in the lipid when it was incorporated at high concentrations into the lipid film.

[8] = after 16 weeks, atherogenic diet, daily i.p., mean ± SEM

Ac-DWLKAFYDKVFEKFKEFF-NH2 [Peptide 5F, Ac-D-W-L-K-A-F-Y-D-K-V-F-E-K-F-K-E-F-F-NH2]
mean lesion cross-sectional area compared with PBS-injected animals [1]: significantly lower mean lesion area
clarification of EPC MLVs [2]: clarified the EPC MLVs to a similar extents
Body Weight [3, 8]: 21.60 ± 0.28 g
Liver Weight [3, 8]: 1.61 ± 0.04 g
Liver: Body (percentage) [3, 8]: 7.46 ± 0.23%
mice died from unexplained causes ([3]; during the prolonged diet studies, groups of 20): one
inhibition of LDL-induced monocyte chemotaxis [4]: significant and similar inhibition
T½ ([5]; C57BL/6J, ip): 6.22 h
Max. % in plasma [5]: 14.29%
HDL as percent of total cholesterol [6]: (9.24 ± 1.18%*)
IDL + LDL as percent of total cholesterol [6]: (42.80 ± 2.51%)
VLDL as percent of total cholesterol [6]: (47.96 ± 3.26%)
HDL cholesterol ([6]; mean ± SEM): 17.92 ± 2.91 mg/dL
IDL + LDL cholesterol ([6]; mean ± SEM): 83.37 ± 8.15 mg/dL
TC (total cholesterol) ([6]; mean ± SEM): 201.63 ± 25.21 mg/dL
VLDL cholesterol ([6]; mean ± SEM): 100.34 ± 15.72 mg/dL
shift in TH of DiPoPE with mol fraction of peptide [7]: linear increase in TH
